Results: patent US20180016593A1, “HERBICIDE-RESISTANT SUNFLOWER PLANTS, POLYNUCLEOTIDES ENCODING HERBICIDE-RESISTANT ACETOHYDROXYACID SYNTHASE LARGE SUBUNIT PROTEINS, AND METHODS OF USE” (priority 2005, published 2018)
Read-outs that look alike come from different tables or passages of the source.

Key:
Format in all cases: in vivo, Helianthus annuus
Details in all cases: 14 DAT
[1] = system: sunflower GM40 (Manteiner Line, A122T); test: Greenhouse whole-plant imazapir dose response (Example 8)
Experimental: (§1) A greenhouse study was conducted to quantify and contrast the imazapir sensivity of the mutants A122T and A205V in different genetic backgrounds at the whole plant level in sunflower. Seeds of the different sunflower lines that were used in this study were obtained under field conditions.
(§2) Seeds were sown in Petri dishes and, after germination, plantlets were transplanted to pots of 10 cm of diameter in a potting media consisting of equal parts of vermiculite, soil and sand. Plants were grown in a greenhouse under natural light conditions supplemented with 400 W sodium halide lamps to provide a 16 hrs daylength. Day/night temperatures were 25 and 20° C., respectively. At the V2 stage 10 plants of each genotype were randomly assigned to each treatment consisting of […] imazapir doses (0, 40, 80, 160, 240, 320, 400 and 480 g ai/ha), and a zero-time biomass determination. Experiment was arranged as a randomized block design with a full factorial (sunflower line×treatment) arrangement of treatments and 10 replications.
(§3) On the day of herbicide application ten plants of each genotype were cut at the cotyledonal node and dried at 60° C. for 48 hrs zero-time for dried weight determination.
(§4) Height was determined as the distance between the cotyledonal node and the apex of each plant. For root biomass determination, each plant was taken from the pot and the potting media was washed out from the roots. Above ground biomass data from each line were converted to biomass accumulation after application by subtracting the appropriate average zero-time biomass from each sample. Dry biomass data were converted to percentages of the untreated control plants within each line to allow direct comparisons between groups. […]

[2] = system: sunflower IR79 (Restorer Line, A205V); test: as above
Experimental: as §1, §2, §3, §4

[3] = system: sunflower TH1 (Hybrid, A205V)
Experimental: as §1, §2, §3, §4

[4] = system: sunflower TH12 (Restorer Line, A122T)
Experimental: as §1, §2, §3, §4

CC(C)C1(C)N=C(c2ncccc2C(=O)O)NC1=O (stereo not shown) [imazapyr]
biomass accumulation (above ground dry weight) ([1]; 0.5x (40 g ai/ha)): 96.5 % of untreated plots
plant height ([1]; 0.5x (40 g ai/ha)): 99.6 % of untreated plots
root dry weight ([1]; 0.5x (40 g ai/ha)): 100 % of untreated plots
biomass accumulation (above ground dry weight) ([1]; 1x (80 g ai/ha)): 94.1 % of untreated plots
plant height ([1]; 1x (80 g ai/ha)): 97.4 % of untreated plots
root dry weight ([1]; 1x (80 g ai/ha)): 100 % of untreated plots
biomass accumulation (above ground dry weight) ([1]; 2x (160 g ai/ha)): 97.6 % of untreated plots
plant height ([1]; 2x (160 g ai/ha)): 95.2 % of untreated plots
root dry weight ([1]; 2x (160 g ai/ha)): 100 % of untreated plots
biomass accumulation (above ground dry weight) ([1]; 3x (240 g ai/ha)): 95.8 % of untreated plots
plant height ([1]; 3x (240 g ai/ha)): 93.0 % of untreated plots
root dry weight ([1]; 3x (240 g ai/ha)): 92.2 % of untreated plots
biomass accumulation (above ground dry weight) ([1]; 4x (320 g ai/ha)): 88.3 % of untreated plots
plant height ([1]; 4x (320 g ai/ha)): 93.0 % of untreated plots
root dry weight ([1]; 4x (320 g ai/ha)): 98.1 % of untreated plots
biomass accumulation (above ground dry weight) ([1]; 5x (400 g ai/ha)): 85.6 % of untreated plots
plant height ([1]; 5x (400 g ai/ha)): 93.9 % of untreated plots
root dry weight ([1]; 5x (400 g ai/ha)): 84.2 % of untreated plots
biomass accumulation (above ground dry weight) ([1]; 6x (480 g ai/ha)): 76.8 % of untreated plots
plant height ([1]; 6x (480 g ai/ha)): 84.3 % of untreated plots
root dry weight ([1]; 6x (480 g ai/ha)): 74.3 % of untreated plots
biomass accumulation (above ground dry weight) ([2]; 0.5x (40 g ai/ha)): 94.4 % of untreated plots
plant height ([2]; 0.5x (40 g ai/ha)): 92.8 % of untreated plots
root dry weight ([2]; 0.5x (40 g ai/ha)): 98.6 % of untreated plots
biomass accumulation (above ground dry weight) ([2]; 1x (80 g ai/ha)): 74.0 % of untreated plots
plant height ([2]; 1x (80 g ai/ha)): 80.9 % of untreated plots
root dry weight ([2]; 1x (80 g ai/ha)): 53.4 % of untreated plots
biomass accumulation (above ground dry weight) ([2]; 2x (160 g ai/ha)): 67.7 % of untreated plots
plant height ([2]; 2x (160 g ai/ha)): 74.9 % of untreated plots
root dry weight ([2]; 2x (160 g ai/ha)): 42.5 % of untreated plots
biomass accumulation (above ground dry weight) ([2]; 3x (240 g ai/ha)): 49.1 % of untreated plots
plant height ([2]; 3x (240 g ai/ha)): 55.7 % of untreated plots
root dry weight ([2]; 3x (240 g ai/ha)): 38.4 % of untreated plots
biomass accumulation (above ground dry weight) ([2]; 4x (320 g ai/ha)): 44.5 % of untreated plots
plant height ([2]; 4x (320 g ai/ha)): 52.8 % of untreated plots
root dry weight ([2]; 4x (320 g ai/ha)): 31.5 % of untreated plots
biomass accumulation (above ground dry weight) ([2]; 5x (400 g ai/ha)): 40.1 % of untreated plots
plant height ([2]; 5x (400 g ai/ha)): 41.7 % of untreated plots
root dry weight ([2]; 5x (400 g ai/ha)): 23.3 % of untreated plots
biomass accumulation (above ground dry weight) ([2]; 6x (480 g ai/ha)): 35.3 % of untreated plots
plant height ([2]; 6x (480 g ai/ha)): 33.2 % of untreated plots
root dry weight ([2]; 6x (480 g ai/ha)): 21.9 % of untreated plots
biomass accumulation (above ground dry weight) ([3]; 0.5x (40 g ai/ha)): 95.0 % of untreated plots
plant height ([3]; 0.5x (40 g ai/ha)): 99.5 % of untreated plots
root dry weight ([3]; 0.5x (40 g ai/ha)): 79.4 % of untreated plots
biomass accumulation (above ground dry weight) ([3]; 1x (80 g ai/ha)): 89.6 % of untreated plots
plant height ([3]; 1x (80 g ai/ha)): 99.5 % of untreated plots
root dry weight ([3]; 1x (80 g ai/ha)): 70.7 % of untreated plots
biomass accumulation (above ground dry weight) ([3]; 2x (160 g ai/ha)): 75.5 % of untreated plots
plant height ([3]; 2x (160 g ai/ha)): 78.6 % of untreated plots
root dry weight ([3]; 2x (160 g ai/ha)): 69.6 % of untreated plots
biomass accumulation (above ground dry weight) ([3]; 3x (240 g ai/ha)): 60.4 % of untreated plots
plant height ([3]; 3x (240 g ai/ha)): 48.4 % of untreated plots
root dry weight ([3]; 3x (240 g ai/ha)): 42.3 % of untreated plots
biomass accumulation (above ground dry weight) ([3]; 4x (320 g ai/ha)): 48.5 % of untreated plots
plant height ([3]; 4x (320 g ai/ha)): 28.9 % of untreated plots
root dry weight ([3]; 4x (320 g ai/ha)): 38.6 % of untreated plots
biomass accumulation (above ground dry weight) ([3]; 5x (400 g ai/ha)): 38.9 % of untreated plots
plant height ([3]; 5x (400 g ai/ha)): 25.3 % of untreated plots
root dry weight ([3]; 5x (400 g ai/ha)): 34.7 % of untreated plots
biomass accumulation (above ground dry weight) ([3]; 6x (480 g ai/ha)): 33.9 % of untreated plots
plant height ([3]; 6x (480 g ai/ha)): 27.1 % of untreated plots
root dry weight ([3]; 6x (480 g ai/ha)): 23.1 % of untreated plots
Phytotoxicity Index ([4]; 0.5x (40 g ai/ha)): 0.0
biomass accumulation (above ground dry weight) ([4]; 0.5x (40 g ai/ha)): 100.0 % of untreated plots
plant height ([4]; 0.5x (40 g ai/ha)): 100.0 % of untreated plots
root dry weight ([4]; 0.5x (40 g ai/ha)): 99.4 % of untreated plots
Phytotoxicity Index ([4]; 1x (80 g ai/ha)): 0.0
biomass accumulation (above ground dry weight) ([4]; 1x (80 g ai/ha)): 99.1 % of untreated plots
plant height ([4]; 1x (80 g ai/ha)): 100.0 % of untreated plots
root dry weight ([4]; 1x (80 g ai/ha)): 100 % of untreated plots
Phytotoxicity Index ([4]; 2x (160 g ai/ha)): 0.0
biomass accumulation (above ground dry weight) ([4]; 2x (160 g ai/ha)): 97.0 % of untreated plots
plant height ([4]; 2x (160 g ai/ha)): 101.8 % of untreated plots
root dry weight ([4]; 2x (160 g ai/ha)): 100 % of untreated plots
Phytotoxicity Index ([4]; 3x (240 g ai/ha)): 0.0
biomass accumulation (above ground dry weight) ([4]; 3x (240 g ai/ha)): 96.1 % of untreated plots
plant height ([4]; 3x (240 g ai/ha)): 97.0 % of untreated plots
root dry weight ([4]; 3x (240 g ai/ha)): 100.0 % of untreated plots
Phytotoxicity Index ([4]; 4x (320 g ai/ha)): 0.0
biomass accumulation (above ground dry weight) ([4]; 4x (320 g ai/ha)): 84.3 % of untreated plots
plant height ([4]; 4x (320 g ai/ha)): 92.1 % of untreated plots
root dry weight ([4]; 4x (320 g ai/ha)): 74.5 % of untreated plots
Phytotoxicity Index ([4]; 5x (400 g ai/ha)): 0.0
biomass accumulation (above ground dry weight) ([4]; 5x (400 g ai/ha)): 77.5 % of untreated plots
plant height ([4]; 5x (400 g ai/ha)): 84.8 % of untreated plots
root dry weight ([4]; 5x (400 g ai/ha)): 65.0 % of untreated plots
Phytotoxicity Index ([4]; 6x (480 g ai/ha)): 0.5
biomass accumulation (above ground dry weight) ([4]; 6x (480 g ai/ha)): 70.7 % of untreated plots
plant height ([4]; 6x (480 g ai/ha)): 79.8 % of untreated plots
root dry weight ([4]; 6x (480 g ai/ha)): 57.8 % of untreated plots
